Experimental data: ChEMBL document CHEMBL1201862, “PubChem BioAssay data set” (2004)
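Growth conditions: 96-well plates. Treatment: test compound, 48 hours, 5 concentrations. Analysis: linear interpolation between bracketing concentrations; unreached endpoints set to highest concentration. GI50 = concentration required for 50% inhibition of growth.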 Activity calls are given as the source filed them. Cut-off read from the data, not from the text of the source: active = GI50 up to about 1.1 µM and inactive = higher.

How the values were obtained:
Assay in all cases: DTP human tumour cell line panel, 48 h
SNB-75 = system: SNB-75
UO-31 = system: UO-31
UACC-62 = system: UACC-62
U-251 = system: U-251
NCI-H226 = system: NCI-H226
NCI-H522 = system: NCI-H522
HT-29 = system: HT-29
SF-268 = system: SF-268
CAKI-1 = system: CAKI-1
EKVX = system: EKVX
IGROV-1 = system: IGROV-1
DMS-114 = system: DMS-114
K562 = system: K562
LOX IMVI = system: LOX IMVI
HL-60 = system: HL-60
SF-539 = system: SF-539
CCRF-CEM = system: CCRF-CEM
MCF7 = system: MCF7
RPMI-8226 = system: RPMI-8226
Malme-3M = system: Malme-3M

Measured: GI50

CC[C@]12C=CCN3CC[C@@]4(c5ccc(OC)cc5N(C)[C@H]4[C@@](O)(C(=O)OC)[C@@H]1OC(C)=O)[C@@H]32
inactive: SNB-75 51.3 µM | UO-31 59 µM | UACC-62 143 µM | U-251 > 200 µM | NCI-H226 132 µM | NCI-H522 97.9 µM | HT-29 > 200 µM | SF-268 138 µM | CAKI-1 15.5 µM | EKVX > 151 µM | IGROV-1 > 185 µM | DMS-114 140 µM | K562 131 µM | LOX IMVI > 200 µM | HL-60 89.3 µM | SF-539 > 200 µM | CCRF-CEM 132 µM | MCF7 147 µM | RPMI-8226 93.8 µM | Malme-3M > 200 µM

CC1=CC(O)C(O)C2(C)C1CC1OC(=O)C(O)C3C(C)C(O)C4(O)OCC13C42 (stereo not given)
inactive: SNB-75 6.18 µM | UO-31 110 µM | UACC-62 84.3 µM | U-251 62.8 µM | NCI-H226 41.3 µM | NCI-H522 50.5 µM | HT-29 38.1 µM | SF-268 133 µM | CAKI-1 32.8 µM | EKVX 30.9 µM | IGROV-1 15.9 µM | DMS-114 35.4 µM | K562 37.2 µM | LOX IMVI 37.8 µM | HL-60 33 µM | SF-539 39.2 µM | CCRF-CEM 7.05 µM | MCF7 91.6 µM | RPMI-8226 16.9 µM | Malme-3M 97.7 µM

Nc1ncnc2c1nnn2C1OC(CO)C(O)C1O (stereo not given)
inactive: SNB-75 9.02 µM | UO-31 2.07 µM | UACC-62 5.7 µM | U-251 7.28 µM | NCI-H226 3.71 µM | NCI-H522 1.87 µM | HT-29 6.78 µM | SF-268 6.3 µM | CAKI-1 4.5 µM | EKVX 7.66 µM | IGROV-1 1.19 µM | DMS-114 3.64 µM | K562 1.61 µM | LOX IMVI 1.8 µM | SF-539 9.14 µM | CCRF-CEM 3.23 µM | MCF7 2.48 µM | RPMI-8226 1.88 µM | Malme-3M 3.58 µM
active: HL-60 0.405 µM
